Patent publication US20250352532A1, “REDUCED N[…] IN PHARMACEUTICAL COMPOSITIONS COMPRISING METHYLPHENIDATE” (MEDICE Arzneimittel Pütter GmbH & Co. KG, priority 2024, published 2025)

Assay: N-nitrosomethylphenidate content of methylphenidate compositions by UHPLC-MS/MS
Assay type: physicochemical
Details: verbal assessment of Table 2; antioxidant/stabilizer in methylphenidate composition
Procedure: To determine the effect of various antioxidants or stabilizers on the prevention of nitrosamine formation in compositions containing methylphenidate, different pharmaceutical compositions were prepared as described in Example 1 above, except that antioxidants/stabilizers other than ascorbyl palmitate were used. However, for better comparability, the molar ratio of methylphenidate: antioxidant/stabilizer was kept constant at 1:3 in all compositions (except for the composition with no antioxidant/stabilizer). Accordingly, the compositions of Example 1 and Comparative Examples 2 to 7 differ only in the type of antioxidant/stabilizer and are otherwise composed exactly as shown in Table 1 above for Example 1. The content of N-nitrosomethylphenidate in the compositions was determined by UHPLC-MS/MS. Accordingly, the term “nitrosamine” in the present context refers to “N-nitrosomethylphenidate”. For sample preparation, the compositions were ground and the resulting powders were extracted with methanol. The following measurement conditions were used for the N-nitrosomethylphenidate determination: • LC column: Waters BEH Shield RP18 (100x2.1 mm, 1.7 um) • Flow rate: 0.4 mL/min • Column temperature: 50° C. . . . • Mobile phase: Phase A: Water with 0.1% by volume formic acid • Phase B: Acetonitrile • Gradient conditions: […]

SMILES: CCCCCCCCCCCCCCCC(=O)OC[C@H](O)[C@H]1OC(=O)C(O)=C1O [ascorbyl palmitate]
- effectiveness in reducing nitrosamine formation in compositions with methylphenidate: by far the most effective
